Results as given in article PMC5618191 (Toxins, 2017).

Tests used:
[1] = test system: CT-26-derived tumor allografts; test: CT-26 allograft mouse model; assay type: in vivo, BALB/c mice
Protocol: For the allograft experiment, 4 × 10^5 CT-26 cells were resuspended in 50 µL RPMI medium and injected subcutaneously into the right flank of eight, 6–8 weeks old, male BALB/c mice that were obtained from Harlan Laboratories (San Pietro al Natisone, Italy). Likewise, in the xenograft experiment, 1 × 10^6 KB-3-1 cells in 50 µL RPMI medium were injected subcutaneously into the right flank of eight, 6–8 weeks old, male CB-17/IcrHanHsd-Prkdc severe combined immunodeficiency (SCID) mice. Of each group, four animals were randomly assigned to the control or to the treatment group. […] All animals were kept under pathogen-free conditions and all procedures were performed in a laminar flow hood. Effects of the treatment were assessed by daily recording of tumor size with a microcaliper and parameters indicating the animals’ overall health condition (e.g., body weight, fatigue, grooming, ragged coat, food and fluid consumption). Tumor volumes (mm^3) were calculated using the formula: (length × width^2)/2. […] The tumor mass was weighed and organs and tissues for immunohistochemical experiments were fixed in 4% formalin/PBS (Roti®-Histofix 4%, Roth, Karlsruhe, Germany) or shock-frozen in liquid nitrogen and stored at −80 °C until the samples were prepared for LC-MS/MS analysis. The experiments were approved by the ethics committee of the Austrian Federal Ministry of Science, Research, and Economy (BMWF-66.009/0084-II/3b/2013, date of approval: 5 September 2013) and performed in line with the Arrive guidelines for animal care and protection and with guidelines from the Austrian Animal Science Association and from the Federation of European Laboratory Animal Science Associations (FELASA).
From each mouse from both the control (n = 4) and the treatment group (n = 4), tissue samples were formalin-fixed, paraffin-embedded and used to prepare serial 3 µm sections. Then, slices were deparaffinized and rehydrated. To evaluate the percentages of interphase/resting, mitotic and dead (apoptotic/necrotic) cell fractions in tumor specimens, sections were stained with hematoxylin and eosin (H/E) by means of standard protocols. Numbers of the three cell fractions were analyzed in a blinded setup in at least four images of H/E-stained tumor sections, taken under a 40 × objective microscope lens. In addition, for the quantification of areas of dead tumor tissue in whole tumor sections, the H/E-stained slides were scanned with a Pannoramic MIDI automated slide scanner (3[…], Budapest, Hungary) and evaluated using Definiens’ TissueStudio® 4.0 (Definiens®, Munich, Germany) software and Pannoramic Viewer (3[…]) software. To evaluate the fraction of apoptotic cells in tumor sections a terminal deoxynucleotidyl transferase (TdT) deoxyuridine triphosphate (dUTP) nick end labeling (TUNEL) assay was performed applying the In Situ Cell Death Kit TMR (red) (Roche Diagnostics, Mannheim, Germany) according to the manufacturer’s protocol. Afterwards, slides were covered with Vectashield anti-fade mounting medium with DAPI (H-1200, Vector Laboratories, Burlingame, CA, USA). Slides were protected from light until they were scanned with a Pannoramic MIDI automated slide scanner (3[…]) and analyzed via digital image analysis software (Definiens’ TissueStudio® 4.0, Definiens®). In order to visualize the proliferative cell fraction (cells in the interphase or M-phase) of tumors, KB-3-1 tumor sections were stained with the Ki-67 (clone MiB-1) antibody from DAKO (1:100; Glostrup, Denmark) and for CT-26 tumor sections with Ki-67 (1:100; D3B5, rabbit, Cell Signaling, Danvers, USA). The primary antibody was incubated for 30 min at room temperature in a humid chamber and after rinsing the slides for 3 min in PBS + 0.1% Tween, the UltraVision LP detection system was applied according to the manufacturer’s instructions (Thermo Fisher Scientific, Massachusetts, MA, USA). Sections were counterstained with hematoxylin. […]

KB-3-1 cells [2] = test system: KB-3-1 cells; design: method as in PMID 19517454; conditions: two-year in vitro selection process; cited from earlier work
KB-3-1 cells [3] = test: Cell cycle analysis (PI staining, flow cytometry); assay type: cell-based, human; conditions: KB-3-1, subtoxic concentrations
Protocol: 1. Supplementary Materials and Methods
KB-3-1 cells (3.5x105/per well) were seeded into 6-well plates and treated the next day with the […]
After incubation at 37°C for another 24 h, cells were trypsinized, centrifuged (8 min, 300g, RT) and fixed in 70% ethanol and stored at -20°C overnight.
Fixed cells were centrifuged (1 min, 6000g) and resuspended in 100 µL of 0.9% NaCl. RNA was digested with 0.2 mg/mL of RNase for 30 min at 37°C. DNA was stained with propidium iodide (PI, 0.01 mg/mL, Sigma-Aldrich St. Louis, Missouri, USA) for 30 min at 4°C in the dark. Afterwards, cells were analyzed by flow cytometry using FACS Calibur (BD Biosciences, Franklin Lakes, New Jersey, USA) as described previously. CellQuest Pro software (BD Biosciences) was utilized to determine percentages of the respective cell cycle phases. […]
The following primary […]
antibodies specific for the following targets were diluted 1:1000 in TBST/3% BSA (w/v): PARP, Bak, Bax, Bim, Bcl-xL (polyclonal, Cell Signaling Technology, Beverly, MA, USA), caspase 9, cl. caspase 9 (monoclonal, Cell Signaling Technology) and β-actin (monoclonal, Clone AC-15, Sigma-Aldrich).
Secondary horseradish peroxidase-labeled antibodies (goat anti-rabbit or anti-mouse, Santa Cruz Biotechnology, Dallas, Texas, TX, USA) were diluted 1:10,000 in TBST/1% BSA. […]

beauvericin
Average tumor weight reduction ([1]; 5 mg/kg bw/day i.p., day 14, vs untreated, p = 0.057): 60% | Reduction of mean tumor volume ([1]; 5 mg/kg bw/day i.p., two cycles, day 14, vs solvent control): 52.8% | Higher rate of scattered cells with signs of cell death (apoptosis or necrosis) in viable tumor regions ([1]; H/E, treated vs control, p < 0.05): 22% | Ki-67-positive (proliferating) tumor cells ([1]; treated group, tumor sections, control 66.9 ± […]): 81.6 ± 3.7% | Mitotic cells in H/E-stained tumor sections ([1]; treated group, control 0.4 ± 0.1%): 0.3 ± 0.2% | Increase of average apoptosis rate (TUNEL) in viable tumor areas ([1]; treated versus untreated, p = 0.065): 2.1 fold | Increase of necrotic areas in H/E-stained whole tumor sections ([1]; treated vs control, p < 0.05): 2.2 fold | Acquisition of resistance (KB-3-1 cells [2]): did not induce beauvericin-unresponsiveness | Cell cycle effect (KB-3-1 cells [3]): cell cycle arrest in the G0/G1-phase
